According to the NIST ThermoML archive (doi:10.1021/je300673m):
± gives the expanded uncertainty stated by the source.

Assay: mn = molality of the nth substance listed, in mol/kg
Conditions: 101 kPa, Liquid

## O=P([O-])([O-])O.[K+].[K+] [dipotassium hydrogen phosphate] + O
288.15 K, m1 = 0.2
  viscosity: 1.201 ± 0.035 mPa·s
288.15 K, m1 = 0.4
  viscosity: 1.329 ± 0.036 mPa·s
288.15 K, m1 = 0.6
  viscosity: 1.409 ± 0.036 mPa·s
288.15 K, m1 = 0.8
  viscosity: 1.534 ± 0.037 mPa·s
298.15 K, m1 = 0.2
  viscosity: 0.953 ± 0.033 mPa·s
298.15 K, m1 = 0.4
  viscosity: 1.057 ± 0.034 mPa·s
298.15 K, m1 = 0.6
  viscosity: 1.118 ± 0.034 mPa·s
298.15 K, m1 = 0.8
  viscosity: 1.217 ± 0.035 mPa·s
308.15 K, m1 = 0.2
  viscosity: 0.781 ± 0.032 mPa·s
308.15 K, m1 = 0.4
  viscosity: 0.867 ± 0.032 mPa·s
308.15 K, m1 = 0.6
  viscosity: 0.916 ± 0.033 mPa·s
308.15 K, m1 = 0.8
  viscosity: 0.997 ± 0.033 mPa·s
318.15 K, m1 = 0.2
  viscosity: 0.659 ± 0.031 mPa·s
318.15 K, m1 = 0.4
  viscosity: 0.73 ± 0.032 mPa·s
318.15 K, m1 = 0.6
  viscosity: 0.77 ± 0.032 mPa·s
318.15 K, m1 = 0.8
  viscosity: 0.833 ± 0.032 mPa·s
